Laboratory results from patent US11000535B2, “Anticancer composition and use thereof” (KAOHSIUNG MEDICAL UNIVERSITY, priority 2015, dated 2021).
Converted amounts (≈) assume the structure as drawn.

Tests used:
[1] = system: Huh7 cells; assay: alamarBlue cell viability / proliferation, Huh7; type: cell-based, human
Description: (§1) Next, we analyzed the effect of PGG on cell proliferation in different liver cancer cell lines, including Huh7, Hep3B (ATCC-No 8064), HepG2 (ATCC HB-8065), SK-HEP-1 (ATCC HTB-52), Mahlavu and HepG2 (ATCC HB-8065).
(§2) Please refer to FIG. 18, which illustrates the effect of PGG on cell proliferation in different liver cancer cell lines, wherein the numeral 1 denotes Huh7 cells, the numeral 2 denotes Hep3B cells, the numeral 3 denotes SK-HEP-1 cells, the numeral 4 denotes Mahlavu cells, and the numeral 5 denotes HepG2 cells. And cell viability was determined by the alamarBlue® viability assay. IC50 values of PGG in each cell line are shown as follows: Huh7 cells 0.03 mg/mL, Hep3B cells 0.07 mg/mL, SK-HEP-1 cells, Mahlavu cells and HepG2 0.10 mg/mL dose-dependent.
(§3) Human liver cancer cell lines Huh7, Hep G2, Hep 3B, SK-HEP-1, Mahlavu and embryonic kidney cell line HEK-293T all were cultured in Dulbecco's Modified Eagle's Medium (DMEM) (Gibco BRL, Grand Island, N.Y., USA) with 10% heat-inactivated fetal bovine serum (HyClone, Logan, Utah, USA), penicillin (100 U/mL), streptomycin ([…]), nonessential amino acids (0.1 mM/L) and L-glutamine (2 mM/L) in a humidified incubator with 5% CO2.

[2] = system: Hep3B cells; assay: alamarBlue cell viability, Hep3B; type: cell-based, human
Description: as §1, §2, §3

[3] = system: Huh7 cells; assay: Colony formation assay; type: cell-based, human; details: 7 days
Protocol: For the colony assay, Huh7 cells were seeded. […] Numbers of surviving colonies were analyzed.

[4] = system: c-Myc protein; assay: c-Myc protein expression by immunoblotting, HepG2; type: cell-based, human; details: HepG2 cells
Protocol: (§4) Please refer to FIG. 32A, FIG. 32B, FIG. 33A and FIG. 33B.
(§5) Cells or xenograft tumors were harvested with RIPA lysis buffer (50 mM Tris (pH 7.5), 150 mM NaCl, 1% Triton X-100, 0.1% sodium dodecyl sulfate (SDS), 0.5% sodium deoxycholate, supplemented with protease and phosphatase inhibitors (1 mM Phenylmethanesulfonyl Fluoride (PMSF), […], […] Tosyllysine Chloromethyl Ketone (TLCK), […] Tosyl phenylalanyl chloromethyl ketone (TPCK), […] aprotinin, 1 mM sodium fluoride (NaF), 5 mM sodium pyrophosphate (NaPPi) and 10 mM sodium orthovanadate (Na3VO4).
(§6) Protein lysates were quantified and separated on SDS-PAGE gel, and immunoblotting was carried out.

[5] = system: GNMT; assay: GNMT expression in xenograft tumor samples; type: in vivo, mice
Description: Please refer to FIG. 21, which illustrates GNMT/actin expression in the tumor tissue.
Please refer to FIG. 30, which illustrates the relative expression of GNMT mRNA in the tumor xenograft mice after treatments, wherein the numeral 1 is for a physiological saline solution, the numeral 2 is for F3-6 (25 mpk), the numeral 3 is for F3-6 (300 mpk), the numeral 4 is for sorafenib (10 mpk), the numeral 5 is for F3-6 (25 mpk) with sorafenib (10 mpk), and the numeral 6 is for PGG (25 mpk) with sorafenib (10 mpk). The expression activity of GNMT mRNA is increased whenever fracrions F3-6 or PGG are administered.
RNA was prepared by using Tri Reagent (Sigma-Aldrich, St Louis, Mo., USA) and was reverse transcribed into cDNA using a Super Script II Reverse Transcriptase Kit (Invitrogen Inc., Carlsbad, Calif., USA).
PCR was performed on an ABI StepOne Plus System (Applied Biosystems, Foster City, Calif., USA) using the LightCycler® First Start DNA Master SYBR Green I reagent (Roche Diagnostics, Basel, Switzerland). The mRNA level was normalized using the TATA-box binding protein (TBP) mRNA level as the standard. […]
Protein lysates were quantified and separated on SDS-PAGE gel, and immunoblotting was carried out. […]

[6] = system: HepG2 cells; assay: alamarBlue cell viability, HepG2; type: cell-based, human
Description: as §1, §2, §3

[7] = system: c-Myc protein; assay: c-Myc protein expression by immunoblotting, PC-3; type: cell-based, human; details: PC-3 cells, 0.1 mg/mL
Protocol: Human prostate cancer cell line PC-3 and human promyelocytic leukemia cell line HL-60 were cultured in Gibco BRL company RPMI (Roswell Park Memorial Institute) 1640's medium.
as §5, §6

[8] = system: GNMT promoter; assay: Dual luciferase GNMT promoter reporter assay in c-Myc knocked-out Huh7 cells; type: cell-based, human; details: 0.1 mg/mL
Protocol: Huh7 cells were co-transfected with a GNMT promoter reporter plasmid, a thymidine kinase (TK) renilla luciferase plasmid, a shMyc plsmid or a shLacZ plasmid for 72 hours.
Evaluating whether the activity of GNMT promoter is damaged or not by knocking out the c-Myc gene and then administering with PGG, in order to confirm that the inhibition of the expression of c-Myc resulting in induced GNMT promoter due to PGG.
Please refer to FIG. 39, which illustrates overexpressions of PGG and c-Myc have influences on GNMT reporter, wherein the numeral 1 denotes the solvent, the numeral 2 denotes PGG, the numeral 3 denotes shLacZ, and the numeral 4 denotes shMyc.

[9] = system: c-Myc protein; assay: c-Myc protein expression by immunoblotting, Huh7; type: cell-based, human; details: Huh7 cells
Protocol: as §4, §5, §6

[10] = system: Huh7 cells; assay: Apoptosis in Huh7 cells (Annexin V flow cytometry, cleaved caspase 3 immunoblot); type: cell-based, human
Protocol: Please refer to FIG. 22, which illustrates sub-G1 of cells in population. And flow cytometry analysis is done after 24 hours of PGG (0.1 mg/mL) treatment as illustrated in FIG. 22.
Please refer to FIG. 23, which illustrates fluorescence intensity in Annexin-V-positive cells among Huh7 cells.
In summary, administration of PGG to Huh7 cells can induce apoptosis.
Cells were harvested and fixed with cold 75% ethanol overnight and stained with propidium iodide (10 ug/mL) and RNase A (1 mg/mL) at 37 □ for 30 min. The cells were then analyzed by an Accuri C6 Flow cytometer (BD Biosciences, San Jose, Calif., USA). Cells were stained for Annexin V—APC Apoptosis Detection Kit according to the manufacturer's protocol (eBioscience, San Diego, Calif., USA).

IC50 [1]: 30 µg/mL (≈ 31.9 µM)
IC50 [2]: 70 µg/mL (≈ 74.4 µM)
IC50 [6]: 100 µg/mL (≈ 106 µM)
Compound: O=C(OC[C@H]1O[C@@H](OC(=O)c2cc(O)c(O)c(O)c2)[C@H](OC(=O)c2cc(O)c(O)c(O)c2)[C@@H](OC(=O)c2cc(O)c(O)c(O)c2)[C@@H]1OC(=O)c1cc(O)c(O)c(O)c1)c1cc(O)c(O)c(O)c1 [PGG, 1,2,3,4,6-penta-O-galloyl-β-D-glucopyranoside]
inhibition of colony formation ([3]; 0.05 mg/ml or higher): 95%
formation of Huh7 cell populations (colonies), dose dependence [3]: dose-dependent manner
expression of c-Myc protein, dose dependence [4]: suppresses the expression of c-Myc protein in HepG2 cells in a dose-dependent manner
expression of c-Myc protein, time dependence [4]: suppresses the expression of c-Myc protein in HepG2 cells in a time-dependent manner
GNMT/actin expression in the tumor tissue (immunoblot) ([5]; PGG 300 mpk xenograft, FIG. 21): induced
expression activity of GNMT mRNA in the tumor ([5]; combination xenograft study, FIG. 30, F3-6 25 or 300 mpk, PGG 25 mpk with sorafenib 10 mpk): increased
c-Myc protein expression [7]: inhibits c-Myc protein expression
GNMT promoter induction in cells knocked out c-Myc (shMyc vs shLacZ) [8]: drop
expression of c-Myc protein, dose dependence [9]: suppresses the expression of c-Myc protein in Huh7 cells in a dose-dependent manner
expression of c-Myc protein, time dependence [9]: suppresses the expression of c-Myc protein in Huh7 cells in a time-dependent manner
apoptosis (Annexin V staining) [10]: significantly induce apoptosis
level of cleaved caspase 3 (immunoblot) [10]: increased the level of cleaved caspase 3 in a dose-dependent manner
